Columns and labels:
[1] = molecular target: nuclear factor-kappa B (NF-kB)-inducing kinase (NIK) (Homo sapiens (Human), UniProt Q99558); test: NIK enzyme inhibition assay (Transcreener ADP, NIK ADP-FP); format: biochemical; settings: purified NIK 0.5 nM, 10 μM ATP, fluorescence polarization; read-out: NIK ADP-FP (Ki μM)
[2] = system: p52 (NF-kB2) nuclear translocation, HeLa cells; test: p52 (NF-kB2) nuclear translocation assay in HeLa cells (non-classical NF-kB signaling, anti-lymphotoxin beta receptor antibody stimulated); format: cell-based; settings: Homo sapiens, 100 ng/mL anti-lymphotoxin beta receptor antibody for 5 hours, read-out: p52 HeLa Transloc Assay (IC50)
Summary of the method: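 HeLa cells in 10% FBS medium were treated with compound (0.2% DMSO final) and stimulated with 100 ng/mL anti-lymphotoxin beta receptor antibody for 5 h. Fixed cells were immunostained for p52 and imaged with DRAQ5 nuclear stain. Translocation is the nuclear to cytoplasmic intensity ratio, and IC50 values are in micromolar.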

[3] = system: REL-A (p65) nuclear translocation, HeLa cells; test: REL-A (p65) nuclear translocation assay in HeLa cells (classical NF-kB signaling, TNF-α stimulated); format: cell-based; settings: Homo sapiens, 0.5 h; HeLa cells, 10 ng/mL TNF-α for 30 minutes; read-out: REL-A HeLa Transloc Assay (IC50)
Summary of the method: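 HeLa cells were exposed to test compounds at various concentrations (0.2% DMSO final) in medium with 10% fetal bovine serum for 4.5 hours, then stimulated for 30 minutes with 10 ng/mL TNF-α. After fixation in 4% paraformaldehyde, 0.1% Triton X-100 permeabilization and staining with 400 ng/mL anti-REL-A (p65) antibody, Alexa488 secondary and DRAQ5, Opera imaging gave nuclear-to-cytoplasmic signal ratios to calculate IC50.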

Chain of nuclear factor-kappa B (NF-kB)-inducing kinase (NIK) (Q99558 whole entry): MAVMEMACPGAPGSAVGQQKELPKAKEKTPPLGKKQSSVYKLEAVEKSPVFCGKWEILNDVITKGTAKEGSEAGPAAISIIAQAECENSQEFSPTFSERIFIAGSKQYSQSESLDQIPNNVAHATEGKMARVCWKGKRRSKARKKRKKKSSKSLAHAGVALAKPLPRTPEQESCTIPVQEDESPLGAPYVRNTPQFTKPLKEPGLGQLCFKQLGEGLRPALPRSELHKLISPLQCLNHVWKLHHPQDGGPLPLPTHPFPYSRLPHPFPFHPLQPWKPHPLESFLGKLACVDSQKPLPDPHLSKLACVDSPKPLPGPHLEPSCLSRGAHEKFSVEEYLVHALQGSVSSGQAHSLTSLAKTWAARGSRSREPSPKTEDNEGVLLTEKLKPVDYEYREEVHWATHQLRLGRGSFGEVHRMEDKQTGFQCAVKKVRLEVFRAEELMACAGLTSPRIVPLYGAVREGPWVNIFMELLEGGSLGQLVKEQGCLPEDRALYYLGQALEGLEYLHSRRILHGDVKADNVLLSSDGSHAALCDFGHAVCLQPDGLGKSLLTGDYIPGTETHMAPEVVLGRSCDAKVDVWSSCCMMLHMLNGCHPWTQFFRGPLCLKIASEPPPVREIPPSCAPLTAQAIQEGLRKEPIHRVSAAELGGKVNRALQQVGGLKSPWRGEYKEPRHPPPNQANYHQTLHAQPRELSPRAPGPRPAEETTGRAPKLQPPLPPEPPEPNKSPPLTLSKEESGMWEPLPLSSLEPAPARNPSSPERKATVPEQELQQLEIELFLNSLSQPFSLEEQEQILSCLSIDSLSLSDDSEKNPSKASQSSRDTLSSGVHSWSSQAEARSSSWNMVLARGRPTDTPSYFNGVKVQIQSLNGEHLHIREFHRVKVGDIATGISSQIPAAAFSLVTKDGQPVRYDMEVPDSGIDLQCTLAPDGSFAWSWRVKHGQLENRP

Question: With `CCOc1cc2c(cn1)c(C(N)=O)nn2-c1cccc(C#C[C@]2(O)CCN(C)C2=O)c1` [Compound 136, 6-ethoxy-1-[3-[2-[(3R)-3-hy-droxy-1-methyl-2-oxo-pyrroli-din-3-yl]ethynyl]phenyl] pyrazolo[4,3-c]pyridine-3-carboxamide] as the compound, how does the Ki [1] read?
Answer: Its Ki is 0.39 nM.

Question: And the IC50 [2]?
Answer: The IC50 was 72.6 nM.

Question: And the IC50 [3]?
Answer: The IC50 was 20000 nM.

Question: Which results are given for `CN1CC[C@@](O)(C#Cc2cccc(-n3nc(C(N)=O)c4cnc(N5CCCC5)cc43)c2)C1=O` [Compound 137, 1-[3-[2-[(3R)-3-hydroxy-1-methyl-2-oxo-pyrrolidin-3-yl]ethynyl]phenyl]-6-pyrroli-din-1-yl-pyrazolo[4,3-c]pyri-dine-3-carboxamide]?
Answer: Ki [1]: 0.25 nM; IC50 [2]: 33.8 nM; IC50 [3]: 20000 nM

Question: Which Ki [1] does the source give for `COc1cc2c(cn1)c(C(N)=O)nn2-c1cccc(C#C[C@]2(O)CCN(C)C2=O)c1` [Compound 140, 1-[3-[2-[(3R)-3-hydroxy-1-methyl-2-oxo-pyrrolidin-3-yl]ethynyl]phenyl]-6-methoxy-pyrazolo[4,3-c]pyridine-3-carboxamide] here?
Answer: The Ki was 0.05 nM.

Question: What about the IC50 [2] of the same compound?
Answer: The IC50 was 38.2 nM.

Question: What about the IC50 [3] of the same compound?
Answer: The IC50 was 8000 nM.

Question: Which Ki [1] does the source give for `CCCC(=O)N(C)Cc1ccc2c(c1)c(C(N)=O)nn2-c1cc(C#C[C@]2(O)CCN(C)C2=O)ccn1` [Compound 142, 5-[[butanoyl(methyl)amino]methyl]-1-[4-[2-[(3R)-3-hy-droxy-1-methyl-2-oxo-pyrroli-din-3-yl]ethynyl]-2-pyri-dyl]indazole-3-carboxamide] here?
Answer: Its Ki is 1.71 nM.

Question: What about the IC50 [2] of the same compound?
Answer: Its IC50 is 793 nM.

Question: What about the IC50 [3] of the same compound?
Answer: Its IC50 is 20000 nM.

Question: With `CN1CC[C@@](O)(C#Cc2cccc(-n3nc(C(N)=O)c4scnc43)c2)C1=O` [Compound 144, 1-[3-[2-[(3R)-3-hydroxy-1-methyl-2-oxo-pyrrolidin-3-yl]ethynyl]phenyl]pyrazolo [3,4-d]thiazole-3-carboxamide] as the compound, how does the Ki [1] read?
Answer: Its Ki is 0.31 nM.

Question: What about the IC50 [2] of the same compound?
Answer: Its IC50 is 33.1 nM.

Question: What about the IC50 [3] of the same compound?
Answer: The IC50 was 20000 nM.

Question: For `CN1CC[C@@](O)(C#Cc2ccc(F)c(-n3nc(C(N)=O)c4c3CCC4)c2)C1=O` [Compound 145, 1-[2-fluoro-5-[2-[(3R)-3-hy-droxy-1-methyl-2-oxo-pyrroli-din-3-yl]ethynyl]phenyl]-5,6-dihydro-4H-cyclopenta [c]pyrazole-3-carboxamide], which Ki [1] is on record?
Answer: The Ki was 1.24 nM.

Question: And the IC50 [2]?
Answer: Its IC50 is 266 nM.

Question: And the IC50 [3]?
Answer: The IC50 was 20000 nM.

Question: What does the source list for `CN1CC[C@@](O)(C#Cc2cccc(-n3nc(C(N)=O)c4c3COC4)c2)C1=O` [Compound 146, 1-[3-[2-[(3R)-3-hydroxy-1-methyl-2-oxo-pyrrolidin-3-yl]ethynyl]phenyl]-4,6-dihydro-furo[3,4-c]pyrazole-3-carbox-amide]?
Answer: Ki [1]: 1.77 nM; IC50 [2]: 220 nM; IC50 [3]: 20000 nM

Question: For `CN1CC[C@@](O)(C#Cc2cccc(-c3nn(C(N)=O)c4ccccc34)c2)C1=O` [Compound 147, 3-[3-[2-[(3R)-3-hydroxy-1-methyl-2-oxo-pyrrolidin-3-yl]ethynyl]phenyl]indazole-1-carboxamide], which Ki [1] is on record?
Answer: Its Ki is 0.324 nM.

Question: And the IC50 [2]?
Answer: The IC50 was 14.1 nM.

Question: What about the IC50 [3] of the same compound?
Answer: Its IC50 is 20000 nM.

Question: With `CN1CC[C@@](O)(C#Cc2cccc(-n3nc(C(N)=O)c4ccncc43)c2)C1=O` [Compound 148, 1-[3-[2-[(3R)-3-hydroxy-1-methyl-2-oxo-pyrrolidin-3-yl]ethynyl]phenyl]pyrazolo [3,4-c]pyridine-3-carboxamide] as the compound, how does the Ki [1] read?
Answer: The Ki was 0.38 nM.

Question: What about the IC50 [2] of the same compound?
Answer: Its IC50 is 110 nM.

Question: What about the IC50 [3] of the same compound?
Answer: Its IC50 is 20000 nM.

Question: `Cc1cc2c(C(N)=O)nn(-c3cccc(C#C[C@]4(O)CCN(C)C4=O)c3)c2cn1` [Compound 149, 1-[3-[2-[(3R)-3-hydroxy-1-methyl-2-oxo-pyrrolidin-3-yl]ethynyl]phenyl]-5-methyl-pyrazolo[3,4-c]pyridine-3-carboxamide] was tested. Which Ki [1] did it give?
Answer: Its Ki is 1.08 nM.

Question: And the IC50 [2]?
Answer: The IC50 was 215 nM.

Question: And the IC50 [3]?
Answer: Its IC50 is 20000 nM.

Question: With `COc1cc2c(C(N)=O)nn(-c3cccc(C#C[C@]4(O)CCN(C)C4=O)c3)c2cn1` [Compound 150, 1-[3-[2-[(3R)-3-hydroxy-1-methyl-2-oxo-pyrrolidin-3-yl]ethynyl]phenyl]-5-methoxy-pyrazolo[3,4-c]pyridine-3-carboxamide] as the compound, how does the Ki [1] read?
Answer: The Ki was 0.29 nM.

Question: What about the IC50 [2] of the same compound?
Answer: The IC50 was 57.3 nM.

Question: And the IC50 [3]?
Answer: The IC50 was 20000 nM.

Question: For `CN1CC[C@@](O)(C#Cc2cccc(-n3nc(C(N)=O)c4c3CCCN4)c2)C1=O` [Compound 151, 1-[3-[2-[(3R)-3-hydroxy-1-methyl-2-oxo-pyrrolidin-3-yl]ethynyl]phenyl]-4,5,6,7-tetra-hydropyrazolo[4,3-b]pyri-dine-3-carboxamide], which Ki [1] is on record?
Answer: Its Ki is 3.96 nM.

Question: What about the IC50 [2] of the same compound?
Answer: Its IC50 is 1030 nM.

Question: What about the IC50 [3] of the same compound?
Answer: The IC50 was 2000 nM.

Question: What does the source list for `Cc1cc(C#C[C@]2(O)CCN(C)C2=O)cc(-n2nc(C(N)=O)c3cccnc32)c1` [Compound 152, 1-[3-[2-[(3R)-3-hydroxy-1-methyl-2-oxo-pyrrolidin-3-yl]ethynyl]-5-methyl-phenyl] pyrazolo[3,4-b]pyridine-3-carboxamide]?
Answer: Ki [1]: 0.87 nM; IC50 [2]: 45.8 nM; IC50 [3]: 20000 nM

Question: Which results are given for `CN1CC[C@@](O)(C#Cc2cccc(-n3nc(C(N)=O)c4ccc(Cl)nc43)c2)C1=O` [Compound 153, 6-chloro-1-[3-[2-[(3R)-3-hy-droxy-1-methyl-2-oxo-pyrroli-din-3-yl]ethynyl]phenyl] pyrazolo[3,4-b]pyridine-3-carboxamide]?
Answer: Ki [1]: 0.52 nM; IC50 [2]: 132 nM; IC50 [3]: 2000 nM

Question: `COc1ccc2c(C(N)=O)nn(-c3cccc(C#C[C@]4(O)CCN(C)C4=O)c3)c2n1` [Compound 154, 1-[3-[2-[(3R)-3-hydroxy-1-methyl-2-oxo-pyrrolidin-3-yl]ethynyl]phenyl]-6-methoxy-pyrazolo[3,4-b]pyridine-3-carboxamide] was tested. Which Ki [1] did it give?
Answer: Its Ki is 0.05 nM.

Question: What about the IC50 [2] of the same compound?
Answer: The IC50 was 33.9 nM.

Question: And the IC50 [3]?
Answer: Its IC50 is 2000 nM.

Question: For `CN1CC[C@@](O)(C#Cc2cccc(-n3nc(C(N)=O)c4ccc(N5CCOCC5)nc43)c2)C1=O` [Compound 155, 1-[3-[2-[(3R)-3-hydroxy-1-methyl-2-oxo-pyrrolidin-3-yl]ethynyl]phenyl]-6-morpho-lino-pyrazolo[3,4-b]pyri-dine-3-carboxamide], which Ki [1] is on record?
Answer: Its Ki is 0.26 nM.

Question: What about the IC50 [2] of the same compound?
Answer: The IC50 was 129 nM.

Question: What about the IC50 [3] of the same compound?
Answer: Its IC50 is 20000 nM.

Question: Which Ki [1] does the source give for `CN1CC[C@@](O)(C#Cc2cccc(-n3nc(C(N)=O)c4ccc(-c5cnn(C)c5)nc43)c2)C1=O` [Compound 156, 1-[3-[2-[(3R)-3-hydroxy-1-methyl-2-oxo-pyrrolidin-3-yl]ethynyl]phenyl]-6-(1-meth-ylpyrazol-4-yl)pyrazolo[3,4-b] pyridine-3-carboxamide] here?
Answer: The Ki was 0.09 nM.

Question: And the IC50 [2]?
Answer: Its IC50 is 95.7 nM.

Question: And the IC50 [3]?
Answer: Its IC50 is 2000 nM.

Question: What does the source list for `Cc1ncc2c(C(N)=O)nn(-c3cccc(C#C[C@]4(O)CCN(C)C4=O)c3)c2n1` [Compound 157, 1-[3-[2-[(3R)-3-hydroxy-1-methyl-2-oxo-pyrrolidin-3-yl]ethynyl]phenyl]-6-methyl-pyrazolo[3,4-d]pyrimidine-3-carboxamide]?
Answer: Ki [1]: 0.68 nM; IC50 [2]: 157 nM; IC50 [3]: 2000 nM

Question: `CN1CC[C@@](O)(C#Cc2cccc(-n3nc(C(N)=O)c4cnc(C5CC5)nc43)c2)C1=O` [Compound 158, 6-cyclopropyl-1-[3-[2-[(3R)-3-hydroxy-1-methyl-2-oxo-pyrrolidin-3-yl]ethynyl]phenyl]pyrazolo[3,4-d]pyri-midine-3-carboxamide] was tested. Which Ki [1] did it give?
Answer: The Ki was 0.23 nM.

Question: What about the IC50 [2] of the same compound?
Answer: The IC50 was 46.2 nM.

Question: What about the IC50 [3] of the same compound?
Answer: The IC50 was 2000 nM.

Question: For `CN1CC[C@@](O)(C#Cc2cccc(-n3nc(C(N)=O)c4cnc(C(F)(F)F)nc43)c2)C1=O` [Compound 159, 1-[3-[2-[(3R)-3-hydroxy-1-methyl-2-oxo-pyrrolidin-3-yl]ethynyl]phenyl]-6-(trifluoro-methyl)pyrazolo[3,4-d] pyrimidine-3-carboxamide], which Ki [1] is on record?
Answer: Its Ki is 7.13 nM.

Question: And the IC50 [2]?
Answer: The IC50 was 2000 nM.

Question: What about the IC50 [3] of the same compound?
Answer: The IC50 was 2000 nM.

Question: With `COc1ncc2c(C(N)=O)nn(-c3cccc(C#C[C@]4(O)CCN(C)C4=O)c3)c2n1` [Compound 160, 1-[3-[2-[(3R)-3-hydroxy-1-methyl-2-oxo-pyrrolidin-3-yl]ethynyl]phenyl]-6-methoxy-pyrazolo[3,4-d]pyrimidine-3-carboxamide] as the compound, how does the Ki [1] read?
Answer: The Ki was 0.13 nM.

Question: What about the IC50 [2] of the same compound?
Answer: Its IC50 is 66.8 nM.

Question: What about the IC50 [3] of the same compound?
Answer: Its IC50 is 20000 nM.

Question: Which results are given for `CN1CC[C@@](O)(C#Cc2cccc(-n3nc(C(N)=O)c4cc(OCCN5CCC5)ccc43)c2)C1=O` [Compound 161, 5-[2-(azetidin-1-yl)ethoxy]-1-[3-[2-[(3R)-3-hydroxy-1-methyl-2-oxo-pyrrolidin-3-yl]ethynyl]phenyl]indazole-3-carboxamide]?
Answer: Ki [1]: 2.52 nM; IC50 [2]: 770 nM; IC50 [3]: 2000 nM

Question: With `CN1CC[C@@](O)(C#Cc2cccc(-n3nc(C(N)=O)c4cc(OCCN5CCOCC5)ccc43)c2)C1=O` [Compound 162, 1-[3-[2-[(3R)-3-hydroxy-1-methyl-2-oxo-pyrrolidin-3-yl]ethynyl]phenyl]-5-(2-morpho-linoethoxy)indazole-3-carboxamide] as the compound, how does the Ki [1] read?
Answer: The Ki was 0.35 nM.

Question: What about the IC50 [2] of the same compound?
Answer: The IC50 was 237 nM.

Question: What about the IC50 [3] of the same compound?
Answer: The IC50 was 2000 nM.

Question: For `CN1CC[C@@](O)(C#Cc2cccc(-n3nc(C(N)=O)c4ncccc43)c2)C1=O` [Compound 164, 1-[3-[2-[(3R)-3-hydroxy-1-methyl-2-oxo-pyrrolidin-3-yl]ethynyl]phenyl)pyrazolo [4,3-b]pyridine-3-carboxamide], which Ki [1] is on record?
Answer: The Ki was 1.54 nM.

Question: What about the IC50 [2] of the same compound?
Answer: The IC50 was 208 nM.

Question: And the IC50 [3]?
Answer: The IC50 was 20000 nM.

Question: What does the source list for `CCOC(=O)N1CCc2c(c(C(N)=O)nn2-c2cc(C#C[C@]3(O)CCN(C)C3=O)ccn2)C1` [Compound 165, ethyl 3-carbamoyl-1-[4-[2-[(3R)-3-hydroxy-1-methyl-2-oxo-pyrrolidin-3-yl]ethynyl]-2-pyridyl]-6,7-dihydro-4H-pyra-zolo[4,3-c]pyridine-5-car-boxylate]?
Answer: Ki [1]: 0.23 nM; IC50 [2]: 274 nM; IC50 [3]: 20000 nM

From patent US9605005B2, “Alkynyl alcohols and methods of use” (Genentech, Inc., priority 2013, dated 2017)
